Data on 3 molecules can be found in paper PMC11530689, “Anti colorectal cancer activity and in silico studies of novel pyridine nortopsentin analog as cyclin dependent kinase 6 inhibitor” (Scientific Reports, 2024).

For one experiment, the system named is P388 cell line. Details: method as in PMID 11425579. Particulars: cited from earlier work.
Another experiment concerns A549 cell line. Details: method as in PMID 11425579. Particulars: cited from earlier work.
For another experiment, the system named is MCF7 cancer cell line. Set-up: method as in PMID 28688277. Particulars: cited from earlier work.
Another experiment deals with CDK1. Details: method as in PMID 28688277. Particulars: cited from earlier work.
The next experiment concerns HCT-116 cells. As to the kind of experiment: MTT assay, IC50 determination. Format: cell-based. The settings on record: Homo sapiens, HCT-116, colorectal cancer cells, comparator. How it is done:
HCT-116 (colon cancer cell line) was obtained from the American Type Culture Collection (ATCC). The cancer cell line was grown in Dulbecco’s Modified Eagle’s Medium (DMEM) supplemented with 10% fetal bovine serum (FBS), penicillin/streptomycin (100 U/mL and 100 μg/mL, respectively) and 2 mM L-glutamine. The cells were maintained at 37 °C in 5% CO2.
The cytotoxic activity of nortopsintin analogs (4a–4j) was determined by the national cancer institute (NCI, Bethesda, Maryland, USA) against 60 different cancer cell lines at a single concentration of (10^−5 M). For the determination of IC50 value, we used MTT assay kit (Sigma) according to the manufacturer’s protocol. HCT-116 cells were seeded into a 96-well plate at a concentration of 20,000 cells/well. After 24 h, the media was aspirated and replaced with serum-free media containing serial dilutions of the 4i compound. The cells were treated for 48 h in triplicates. […] The percentage of cytotoxicity was calculated using the following equation: % Cytotoxicity = [1 − (AVx/AVNC)] × 100.
Where, AVx denotes the average absorbance of the sample and AVNC denotes the average absorbance of the negative control. The absorbance was measured at 570 nm with reference at 690 nm.
Background: Formazan colour is commonly taken as a measure of viable cells.

Usually IC50 stands for the concentration needed to halve the response being measured. On to `COc1ccc2c(-c3cc(C(F)(F)F)cc(-c4cn(S(=O)(=O)c5ccc(C)cc5)c5cc(OC)ccc45)n3)cn(S(=O)(=O)c3ccc(C)cc3)c2c1` [II, bis(indolyl)-4-trifluoromethylpyridine], for which the IC50 was 4.3 µM in the experiment with P388 cell line and 1.7 µM in the experiment on A549 cell line.
Consider `COCCn1cc(-c2nc(-c3c[nH]c4ncccc34)cs2)c2cc(OC)ccc21` [III], for which, in the experiment with MCF7 cancer cell line, the antitumor activity result is reported as “demonstrated antitumor activity”. Further, in the experiment on CDK1, the “CDK1 activity in vitro” value is reported as “inhibiting CDK1 activity in vitro”.
In the case of `COc1cccc2c1C(=O)c1c(O)c3c(c(O)c1C2=O)C[C@@](O)(C(=O)CO)C[C@@H]3O[C@H]1C[C@H](N)[C@H](O)[C@H](C)O1` [doxorubicin, reference compound], the midpoint of inhibition with HCT-116 cells, the IC50, lay at 10.1 µM.
